Assay type in all cases: cell-based
The subject of one test is Ps. aeruginosa 2. Nature of the test: Antimicrobial activity, minimal inhibitory concentration (agar streak) against Ps. aeruginosa 2. The note with it: Pseudomonas aeruginosa, 10^8 viable cells per ml, heart infusion agar, 37° C. for 20 hours. The protocol:
(§1) Now in order to show the utility of the object compounds (I), test data on anti-microbial activity of a representative compound of the present invention are shown below.
(§2) One loopful of an overnight culture of each test strain in Trypticase-soy broth (10^8 viable cells per ml.) was streaked on heart infusion agar (HI-agar) containing graded concentrations of antibiotics, and the minimal inhibitory concentration (MIC) was expressed in terms of μg/ml after incubation at 37° C. for 20 hours.

A further test deals with B. subtilis ATCC 6633. Put plainly: Antimicrobial activity, minimal inhibitory concentration (agar streak) against B. subtilis ATCC 6633. The note with it: Bacillus subtilis, ATCC6633, 10^8 viable cells per ml, heart infusion agar, 37° C. for 20 hours. How it is done: as §1, §2
The subject of the next test is S. marcescens 35. Nature of the test: Antimicrobial activity, minimal inhibitory concentration (agar streak) against S. marcescens 35. As to conditions: Serratia marcescens, 10^8 viable cells per ml, heart infusion agar, 37° C. for 20 hours. The protocol: as §1, §2

The results in this text go back to patent publication US4332800A, “Cephem compounds” (Fujisawa Pharmaceutical Co., Ltd., priority 1979, dated 1982).

In brackets after ≈: the same amount, converted by molar mass.

As a reminder, the MIC is the lowest concentration that inhibits growth of the organism. A low value points to a more susceptible organism.

As to `CCO/N=C(\C(=O)NC1C(=O)N2C(C(=O)[O-])=C(C[n+]3ccccc3)CSC12)c1nsc(N)n1` (stereo not drawn) [(1)], the MIC against Ps. aeruginosa 2 came to 3.13 µg/mL (≈ 6.39 µM); in the test on B. subtilis ATCC 6633 it was 0.78 µg/mL (≈ 1.59 µM); against S. marcescens 35 it was 1.56 µg/mL (≈ 3.19 µM).
Take `CCO/N=C(\C(=O)NC1C(=O)N2C(C(=O)[O-])=C(C[n+]3ccc(C(N)=O)cc3)CSC12)c1nsc(N)n1` (stereo not drawn) [(3)]: the MIC came out at 25 µg/mL (≈ 46.9 µM) in the test with Ps. aeruginosa 2, 0.78 µg/mL (≈ 1.46 µM) in the test with B. subtilis ATCC 6633 and 3.13 µg/mL (≈ 5.88 µM) in the test on S. marcescens 35.
Regarding `CCCO/N=C(\C(=O)NC1C(=O)N2C(C(=O)[O-])=C(C[n+]3ccccc3)CSC12)c1nsc(N)n1` (stereo not drawn) [(2)], the MIC against Ps. aeruginosa 2 amounted to 12.5 µg/mL (≈ 24.8 µM); against B. subtilis ATCC 6633 it was 0.39 µg/mL (≈ 0.774 µM); against S. marcescens 35, 3.13 µg/mL (≈ 6.22 µM).
